The test system of this assay is rat peritoneal mast cells (Rattus norvegicus). Nature of the assay: In vitro histamine-release activity by using peritoneal cells from male Sprague-Dawley rats in a standard assay.

Converted amounts (≈) assume the structure as drawn.

For the compound `CC(=O)NC(Cc1ccc2ccccc2c1)C(=O)NC(Cc1ccccc1)C(=O)NC(Cc1ccccc1)C(=O)N[C@@H](CO)C(=O)N[C@@H](Cc1ccc(O)cc1)C(=O)NC(Cc1c[nH]c2ccccc12)C(=O)NC(Cc1ccccc1)C(=O)N[C@@H](CC(C)C)C(=O)N1CCC[C@@H]1C(=O)NC(C)C(N)=O` (stereo in doubt), the ED50 stood at 46 µg/mL (≈ 32.5 µM).

Values taken from ChEMBL document CHEMBL1123725, “Effect of reductive alkylation of D-lysine in position 6 on the histamine-releasing activity of luteinizing hormone-releasing hormone antagonists” (1987).
